The source of these data is patent US20050192360A1, “Method of treatment of pancreatic cancer” (priority 1999, published 2005).

Molecules are shown by their SMILES. Counter-ions that a name gives are not always drawn. Like-named read-outs stand apart in the source and are kept apart here.

The test system of data set [1] is xenografted Panc-1 human pancreatic tumors. The data set can be described thus: Human pancreatic cancer xenograft mouse model, monotherapy or combination with gemcitabine (Example 7). In kind it is in vivo, male athymic nude (Ncr) mice. The settings on record: for Tumor re-growth after termination of treatment: 19 days post-treatment observation. Here is the method:
Human pancreatic cancer Panc-1 cells (2×10^6) are implanted subcutaneously into male athymic nude (Ncr) mice. […] The combination therapy group receives β-lapachone and gemcitabine on the same day in each treatment. Following treatment, the animals are observed for an additional 19 days. Tumors are measured throughout the treatment and post-treatment periods.

For the next data set, the system named is normal cells. The data set can be described thus: In vitro experiments using cell lines of various tissue origins. The data set is classed as cell-based.
Data set [2] relates to E2F-1 protein in Paca-2 cells. Put plainly: Western blot of E2F-1 protein expression. In kind it is cell-based, human. The procedure: Cells are harvested and whole cell lysates were prepared and resolved by SDS/PAGE, then Western blots are prepared using E2F-1 antibody obtained from Santa Cruz Biotechnology (Santa Cruz, Calif.) and an enhanced chemiluminescence assay system (Amersham Pharmacia).
(In general: Immunoblotting shows a protein as a band on a membrane.)

For data set [3], the system named is xenografted Panc-1 human pancreatic tumors. In kind it is in vivo, athymic female nude mice (Ncr). The settings on record: 5 treatments. The procedure: Athymic female nude mice (Ncr) are inoculated subcutaneously with 4×10^6 human Panc-1 pancreatic cancer cells, and the tumors are allowed to grow to […] in size. The animals are randomized into three groups. […] Mean tumor volume is then analyzed.

Turning to `Nc1ccn([C@@H]2O[C@H](CO)[C@@H](O)C2(F)F)c(=O)n1` [gemcitabine, 2′-deoxy-2′,2′-difluorocytidine monohydrochloride (β-isomer), reference compound], the “Reduction of tumor size at termination of treatment” value in data set [1] (gemcitabine 120 mg/kg i.p., ten treatments every three days) is on record as 30-40%. In data set [1] (gemcitabine 120 mg/kg i.p.), the “Tumor re-growth after termination of treatment” value is on record as 400%.
For the compound `CC1(C)CCC2=C(O1)c1ccccc1C(=O)C2=O` [β-lapachone, 3,4-dihydro-2,2-dimethyl-2H-naphtho[1,2-b]pyran-5,6-dione], the “Toxicity to normal cells in vitro” value in the data set on normal cells was “relatively non-toxic”. In addition, in data set [2] (0.5 hours exposure), the “Concentration at which E2F-1 protein is induced (lowest concentration tested)” value worked out at 0.5 µM. Besides, the “E2F-1 protein expression (Western blot)” value in data set [2] (0.5 hours exposure, 0.5, 2 or 4 μM) is given as “upregulated”. For the same compound, the Mean tumor volume result in data set [3] (40 mg/kg intraperitoneally every three days) and in data set [3] (60 mg/kg intraperitoneally every three days) was “reduced” throughout. Also, the “Tumor regression at termination of treatment” value in data set [1] (β-lapachone alone 40 mg/kg i.p., ten treatments every three days) was 30-40%. In addition, the “Tumor re-growth after termination of treatment” value in data set [1] (β-lapachone alone 40 mg/kg i.p.) is reported as “no significant re-growth”.
